Tested on: SYO-1 complex spheroid growth, percent test/control
Assay: Anticancer human tumor SYO-1 cell line growth inhibition [Asc];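 note: compound exposure lasted 7 days after spheroids grew 3 days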;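 for viability, T/C: 100% = DMSO vehicle control viability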
Conditions: for IC50: curve of first compound; for viability, T/C: stronger effect = lower value
Procedure, shortened: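 Concentration series start at each agent's clinical Cmax, or at 10 microM when none is established, and drop in half-log steps; agents are applied alone or together to complex spheroids built with HUVEC and hMSC.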

Compound: Cc1nc(N2CCC3(CC2)COC(C)C3N)c(CO)nc1Sc1ccnc(N)c1Cl (configuration not stated) + Cc1c(S(C)(=O)=O)c(-c2cc(F)cc(N3CCN(c4ccc(NS(=O)(=O)c5ccc(NC(CCN6CCC(C(=O)OCCCP(=O)(O)O)CC6)CSc6ccccc6)c(S(=O)(=O)C(F)(F)F)c5)cc4)CC3)c2)c(-c2ccc(Cl)cc2)n1C(C)C
- IC50 (second compound 0.0316 µM): > 3 µM
- IC50 (second compound 0.1 µM): > 3 µM
- IC50 (second compound 0.316 µM): > 3 µM
- IC50 (second compound 1 µM): > 3 µM
- IC50 (second compound 3.16 µM): > 3 µM
- IC50 (second compound 10 µM): > 3 µM
- viability, T/C (second compound 0.0316 µM, first compound 0.00949 µM): 93.6%
- viability, T/C (second compound 0.0316 µM, first compound 0.03 µM): 99.6%
- viability, T/C (second compound 0.0316 µM, first compound 0.0949 µM): 91.7%
- viability, T/C (second compound 0.0316 µM, first compound 0.3 µM): 98.8%
- viability, T/C (second compound 0.0316 µM, first compound 0.949 µM): 110%
- viability, T/C (second compound 0.0316 µM, first compound 3 µM): 102%
- viability, T/C (second compound 0.1 µM, first compound 0.00949 µM): 96%
- viability, T/C (second compound 0.1 µM, first compound 0.03 µM): 94.8%
- viability, T/C (second compound 0.1 µM, first compound 0.0949 µM): 97.3%
- viability, T/C (second compound 0.1 µM, first compound 0.3 µM): 103%
- viability, T/C (second compound 0.1 µM, first compound 0.949 µM): 100%
- viability, T/C (second compound 0.1 µM, first compound 3 µM): 93.7%
- viability, T/C (second compound 0.316 µM, first compound 0.00949 µM): 91.3%
- viability, T/C (second compound 0.316 µM, first compound 0.03 µM): 88.2%
- viability, T/C (second compound 0.316 µM, first compound 0.0949 µM): 98.9%
- viability, T/C (second compound 0.316 µM, first compound 0.3 µM): 97.5%
- viability, T/C (second compound 0.316 µM, first compound 0.949 µM): 103%
- viability, T/C (second compound 0.316 µM, first compound 3 µM): 92.3%
- viability, T/C (second compound 1 µM, first compound 0.00949 µM): 92.2%
- viability, T/C (second compound 1 µM, first compound 0.03 µM): 95.7%
- viability, T/C (second compound 1 µM, first compound 0.0949 µM): 93.2%
- viability, T/C (second compound 1 µM, first compound 0.3 µM): 99.9%
- viability, T/C (second compound 1 µM, first compound 0.949 µM): 98.7%
- viability, T/C (second compound 1 µM, first compound 3 µM): 91%
- viability, T/C (second compound 3.16 µM, first compound 0.00949 µM): 95.3%
- viability, T/C (second compound 3.16 µM, first compound 0.03 µM): 91.2%
- viability, T/C (second compound 3.16 µM, first compound 0.0949 µM): 89%
- viability, T/C (second compound 3.16 µM, first compound 0.3 µM): 91.4%
- viability, T/C (second compound 3.16 µM, first compound 0.949 µM): 95.5%
- viability, T/C (second compound 3.16 µM, first compound 3 µM): 89.3%
- viability, T/C (second compound 10 µM, first compound 0.00949 µM): 84%
- viability, T/C (second compound 10 µM, first compound 0.03 µM): 82.8%
- viability, T/C (second compound 10 µM, first compound 0.0949 µM): 94.8%
- viability, T/C (second compound 10 µM, first compound 0.3 µM): 87.2%
- viability, T/C (second compound 10 µM, first compound 0.949 µM): 95.8%
- viability, T/C (second compound 10 µM, first compound 3 µM): 78.5%
